Measurements taken from US10487313B2, “Efficient induction of definitive endoderm from pluripotent stem cells” (Novo Nordisk A/S, priority 2011, dated 2019).

System: chIPS4 cells
Experiment: OCT4 and SOX17 protein ICC quantification during DE induction, DEF culture system
Assay type: cell-based, human
Conditions: for OCT4 ICC % positive cells / SOX17 ICC % positive cells: CHIR 3 μM D1 then Activin A D2-3, or D'Amour protocol
Experimental: Human embryonic stem (hES) cells SA121 and chIPS4 (Cellartis) were grown on human fibronectin (Sigma) in DEF culture media (Cellartis) with 30 ng/ml bFGF (Invitrogen) and 10 ng/ml Noggin (Peprotech) in 6-96 well plates. Cells were single cell passaged with Rock inhibitor Y-27632 (Calbiochem) and seeded at a density of 40000 cells/cm2 for experiments. Experiments were initiated 4 d after passage.
Confluent cultures were washed once in RPMI1640 (Invitrogen) before 24 hour pre-treatment with 0,5-7μM CHIR99021 (Stemgent) in RPMI. Control cells were left untreated in RPMI and D'Amour cells were either left in RPMI or treated with AA (Peprotech)+Wnt3a (R&D Systems) without pre-treatment depending on experimental setup.
After 24 hours, pretreated and control cells were washed once with RPMI before adding 100 ng/ml AA in RPMI. D'Amour cells were also treated with 100 ng/ml AA but with 0,2% FBS instead of B27. 24 h later, 2% B27 (Invitrogen) was added to the AA media for 2-3 d. Control cells were treated with B27 to prevent cell death and D'Amour cells with 2% FBS according to published protocol. Media was changed every day.
• Day 1: Cells were washed carefully in prewarmed (37° C.) RPMI before starting the differentiation. Day1 medium was premixed (CHIR 3 μM in prewarmed RPMI+PEST) and gently added to cell culture. Volumes were adjusted according to plate formats. • Day 2: Cells were washed carefully in prewarmed (37° C.) RPMI before media change. Day2 medium was premixed (100 ng/ml Activin A in prewarmed RPMI+0.1% PEST) and gently added to cell culture. • Day 3: Day3&4 mediums were premixed (100 ng/ml Activin A and 2% B27 in prewarmed RPMI+0.1% PEST) and gently added to cell culture. • Day 4: DE was harvested or reseeded for further differentiation. Cells were checked under the microscope every day.
Cells were washed in PBS+/+ and fixed in 4% formaldehyde for 30 min (10% formaline, VWR). The cells were then washed again three times in PBS and left in PBS (4° C.) until staining. Fixed cells were washed with PBS once, then permeabilized with 0.5% Triton X-100 in PBS for 6 min, washed in PBS and blocked with TNB buffer (0.1 M Tris-HCL pH 7.5, 0.15 M NaCl, 0.5% Blocking Reagent (Perkin Elmer)) for 30 min. Primary antibodies (goat-anti-SOX17 (AF1924, RnD Systems); goat-anti-Brachyury (AF2085, RnD Systems); mouse-anti-OCT4 (sc5279, SantaCruz Biotechnology); goat-anti-PDX1 (AB47383, Abcam)) were added in 0.1% TritonX-100+PBS for 1 h in RT or 4° C. O/N. After a thorough washing step in PBS, secondary antibodies were added together with DAPI in 0.1% Triton X-100+PBS for 45 min at RT, washed thoroughly in PBS and left in PBS until photodocumentation.
Undifferentiated ChIPS4 cells (d0) were either pre-treated for 24 h with CHIR (3 μM) or directly exposed to AA (100 ng/ml) and Wnta3a (25 ng/ml) according to Kroon et al 2008. The cells were then washed and AA was added for 1-4 d.
In addition, the most striking difference between the protocols could be seen in terms of morphology with a much higher degree of cell death during D'Amour treatment. To further strengthen the results, a quantification of SOX17 protein expression was thus performed. chIPS4 cells treated with either the CHIR- or D'Amour-protocol were fixed and stained using a SOX17-specific ab and the images were quantified in respect of total amounts and the percentage of SOX17-positive cells. […] In addition, the total amount of CHIR pre-treated cells was 25% higher than the number seen after D'Amour treatment.

Cc1c[nH]c(-c2cnc(NCCNc3ccc(C#N)cn3)nc2-c2ccc(Cl)cc2Cl)n1 [CHIR, CHIR99021]
OCT4 ICC % positive cells (chIPS4, D1): 91.2%
SOX17 ICC % positive cells (chIPS4, D1): 0.9%
OCT4 ICC % positive cells (chIPS4, D2): 3.1%
SOX17 ICC % positive cells (chIPS4, D2): 68.8%
OCT4 ICC % positive cells (chIPS4, D3): 3.7%
SOX17 ICC % positive cells (chIPS4, D3): 91.5%
total amount of cells higher than after D'Amour treatment (chIPS4, d3, image quantification): 25%
